This passage reports Activity, EC50 and inhibition in vivo results from ChEMBL document CHEMBL4811278, “Discovery of novel modulators for the PPARα (peroxisome proliferator activated receptor α): Potential therapies for nonalcoholic fatty liver disease” (Bioorg Med Chem, 2021).

Series [1] concerns the target T1, Peroxisome proliferator-activated receptor alpha (Mus musculus) (UniProt P23204).
T1 sequence (whole entry): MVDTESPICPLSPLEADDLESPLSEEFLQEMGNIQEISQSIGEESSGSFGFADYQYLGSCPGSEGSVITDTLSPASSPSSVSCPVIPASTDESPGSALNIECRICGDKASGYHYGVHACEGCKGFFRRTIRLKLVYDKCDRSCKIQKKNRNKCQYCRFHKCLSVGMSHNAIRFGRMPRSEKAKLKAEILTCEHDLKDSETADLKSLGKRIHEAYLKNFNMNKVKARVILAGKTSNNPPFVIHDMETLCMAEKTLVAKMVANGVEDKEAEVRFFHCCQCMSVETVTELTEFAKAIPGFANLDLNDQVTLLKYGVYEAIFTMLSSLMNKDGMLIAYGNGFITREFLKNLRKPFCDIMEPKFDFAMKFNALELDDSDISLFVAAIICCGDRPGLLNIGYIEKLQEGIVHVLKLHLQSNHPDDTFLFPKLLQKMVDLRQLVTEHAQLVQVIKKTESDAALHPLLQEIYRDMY
As to the kind of experiment: In vivo agonist activity at PPARalpha in high fat diet-induced nonalcoholic steatohepatitis C57BL/6J mouse model assessed as trans-repression of ApoC3 mRNA expression in liver administered at 3 mg/kg, po and measured after 24 hrs by quantitative real time PCR analysis. The series is classed as functional, organism-based. A general note: Real-time PCR tracks product formation cycle by cycle.

The nature of series [2]: Toxicity in C57BL/6J mouse assessed as reduction in body weight measured after 24 hrs. Conditions: in vivo.
In series [3] the target is T1, Peroxisome proliferator-activated receptor alpha (Mus musculus). As to the kind of experiment: In vivo agonist activity at PPARalpha in high fat diet-induced nonalcoholic steatohepatitis C57BL/6J mouse model assessed as increase in mCPT1A gene expression in liver at 3 mg/kg, po administered once daily for 7 days and measured at >3 days by quantitative real time PCR analysis. The settings on record: time day >3. Type of series: functional, organism-based.

Series [4] has the same target. As to the kind of experiment: In vivo agonist activity at PPARalpha in high fat diet-induced nonalcoholic steatohepatitis C57BL/6J mouse model assessed as transrepression of ApoC3 mRNA expression in liver administered at 3 mg/kg, po administered once daily for 7 days by quantitative real time PCR analysis. Type of series: functional, organism-based. The settings on record: time 7.0 day.

Series [5] shares this target. As to the kind of experiment: In vivo agonist activity at PPARalpha in high fat diet-induced nonalcoholic steatohepatitis C57BL/6J mouse model assessed as increase in LPL mRNA expression in liver administered at 3 mg/kg, po and measured after 24 hrs by quantitative real time PCR analysis. The series is classed as functional, organism-based.
For series [6], the system named is Mus musculus. As to the kind of experiment: Hypolipidemic activity in high fat diet-induced nonalcoholic steatohepatitis C57BL/6J mouse model assessed as reduction in fat droplets in liver at 3 mg/kg, po administered once daily for 1 week by Oil Red O staining based assay. Type of series: functional, organism-based. Conditions: time 1.0 weeks.
Series [7] deals with Mus musculus. As to the kind of experiment: Hypolipidemic activity in high fat diet-induced nonalcoholic steatohepatitis C57BL/6J mouse model assessed as reduction in lipid accumulation in liver at 3 mg/kg, po administered once daily for 1 week by Oil Red O staining based assay. The series is classed as functional, organism-based. Conditions: time 1.0 weeks.
Series [8] has as its target T2, Peroxisome proliferator-activated receptor alpha (Homo sapiens, UniProt Q07869).
T2 sequence (Q07869 whole entry): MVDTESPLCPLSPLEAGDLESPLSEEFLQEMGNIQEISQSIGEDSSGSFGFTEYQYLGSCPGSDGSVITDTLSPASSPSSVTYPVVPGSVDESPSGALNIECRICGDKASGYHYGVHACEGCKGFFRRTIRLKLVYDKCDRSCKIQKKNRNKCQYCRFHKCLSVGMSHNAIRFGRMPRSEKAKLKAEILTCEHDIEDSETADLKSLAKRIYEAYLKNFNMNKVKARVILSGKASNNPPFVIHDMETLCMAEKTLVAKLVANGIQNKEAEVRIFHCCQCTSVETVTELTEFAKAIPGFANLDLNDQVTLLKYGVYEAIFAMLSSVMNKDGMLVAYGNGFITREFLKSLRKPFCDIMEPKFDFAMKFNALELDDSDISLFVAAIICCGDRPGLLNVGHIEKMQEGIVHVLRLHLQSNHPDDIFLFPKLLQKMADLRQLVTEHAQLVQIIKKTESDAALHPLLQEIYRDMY
As to the kind of experiment: Agonist activity at Gal4-fused human PPARalpha co-expressed with RXRalpha in monkey CV1 cells assessed as PPRE transcriptional activation incubated for 45 hrs by luciferase reporter gene assay. The series is classed as cell-based, CV-1. (In general: In a reporter assay the amount or activity of a reporter protein is the signal.)

Series [9] has as its system Mus musculus. As to the kind of experiment: Hypolipidemic activity in high fat diet-induced nonalcoholic steatohepatitis C57BL/6J mouse model assessed as reduction in plasma triglyceride level at 3 mg/kg, po administered once daily via gavage for 7 days. The series is classed as functional. The settings on record: 168 h, time 7 day.

One may read the EC50 as the concentration needed to bring the measured effect to its halfway point. The term inhibition in vivo denotes the share of the control response that was lost under treatment.

Activity calls are given as the source filed them. No cut-off for these calls is given here. Some results are limits rather than exact numbers.

As for `COc1ccc(Cn2c(CCCc3ccc(OC(C)(C)C(=O)O)cc3)nn(Cc3ccc(C)cc3)c2=O)cc1`, the outcome (in [1]; in series [3]; in series [4]; in series [5]; with Mus musculus [6]; with Mus musculus [7]) was Active. Also, the Activity entry in [2] was “Non-Toxic”. For the same molecule, the concentration for a half-maximal effect (EC50) in [8] amounted to 870 pM. Also, the inhibition in vivo at 3 mg/kg with Mus musculus [9] was at least 50%.
